Data from the NIST ThermoML archive (doi:10.1016/j.jct.2009.11.003).
Where “and” joins values, the source holds several entries; their conditions need not be identical. Identical values can stand only once.

Assays:
[1] = molar enthalpy of vaporization or sublimation; details: Crystal, Static calorimetry
[2] = Crystal, Calculated from knudsen effusion weight loss

Nc1c(Cl)cc([N+](=O)[O-])cc1[N+](=O)[O-] [2-chloro-4,6-dinitrobenzenamine]
Details	molar enthalpy [kcal/mol]	vapor or sublimation pressure
[1], 298.15 K	27.5	–
[1], 369.13 K	27.3	–
[2], 358.1 K	–	0.000105 kPa and 0.000103 kPa and 0.00011 kPa
[2], 360.15 K	–	0.00013 kPa and 0.000133 kPa and 0.000128 kPa
[2], 362.16 K	–	0.000164 kPa and 0.000161 kPa and 0.000173 kPa
[2], 364.12 K	–	0.000202 kPa and 0.000198 kPa and 0.000197 kPa
[2], 366.17 K	–	0.000246 kPa and 0.000248 kPa and 0.00024 kPa
[2], 368.17 K	–	0.000302 kPa and 0.000297 kPa and 0.000296 kPa
[2], 370.11 K	–	0.000361 kPa and 0.000368 kPa
[2], 372.08 K	–	0.000455 kPa and 0.00044 kPa and 0.000426 kPa
[2], 374.14 K	–	0.00055 kPa and 0.000536 kPa
[2], 376.25 K	–	0.000684 kPa and 0.000662 kPa and 0.000663 kPa
[2], 378.14 K	–	0.000816 kPa and 0.000824 kPa and 0.000797 kPa
[2], 380.16 K	–	0.000996 kPa and 0.000971 kPa and 0.000963 kPa

Nc1c([N+](=O)[O-])cc(Cl)cc1[N+](=O)[O-] [4-chloro-2,6-dinitroaniline]
Details	molar enthalpy [kcal/mol]	vapor or sublimation pressure
[1], 298.15 K	25.1	–
[1], 347.1 K	25.02	–
[2], 335.12 K	–	7.67e-05 kPa and 7.72e-05 kPa and 7.84e-05 kPa
[2], 338.19 K	–	0.00011 kPa and 0.000108 kPa and 0.000106 kPa
[2], 341.17 K	–	0.00015 kPa and 0.000145 kPa and 0.000146 kPa
[2], 344.17 K	–	0.000202 kPa and 0.000201 kPa and 0.000207 kPa
[2], 347.18 K	–	0.000287 kPa and 0.000284 kPa and 0.000277 kPa
[2], 350.12 K	–	0.000388 kPa and 0.000386 kPa
[2], 353.12 K	–	0.00052 kPa and 0.000532 kPa and 0.000527 kPa
[2], 356.17 K	–	0.000715 kPa and 0.000702 kPa and 0.00071 kPa
[2], 359.16 K	–	0.000964 kPa and 0.000935 kPa and 0.000922 kPa
